Laboratory results as given in US20240018133A1, “MODULATORS OF THE INTEGRATED STRESS PATHWAY” (Calico Life Sciences LLC, priority 2019, published 2024).

test system: ATF4 luciferase reporter (human full-length ATF4 5'-UTR fused to firefly luciferase) in HEK293T cells; experiment: ATF4-Luc assay (in vitro model of VWMD): HEK293T cells carrying ATF4 luciferase reporter, tunicamycin-treated; format: cell-based; conditions: Homo sapiens, HEK-293T, 1 μg/mL tunicamycin, 7 hours, One Glo luminescence
Procedure, shortened: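 Reporter cells were stably generated by retroviral transduction and puromycin selection, then seeded at 30,000 cells/well. Next day, cells received 1 μg/mL tunicamycin with 200 nM test compound for 7 h, and luciferase luminescence was read with a one-step reagent. Values reported as EC50.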

`O=C(COc1ccc(Cl)c(Cl)c1)NC12CC(NC(=O)[C@@H]3C[C@H](O)c4cc(F)c(F)cc4O3)(C1)C2` [Compound 208, (2S,4S)—N-{3-[2-(3,4-dichlorophenoxy)acetamido]bicyclo[1.1.1]pentan-1-yl}-6,7-difluoro-4-hydroxy-3,4-dihydro-2H-1-benzopyran-2-carboxamide] and `O=C(COc1ccc(Cl)c(F)c1)NC12CC(NC(=O)C3CC(O)c4ccc(F)cc4O3)(C1)C2` (centres unmarked) [Compound 222, N-{3-[2-(4-chloro-3-fluorophenoxy)acetamido]bicyclo[1.1.1]pentan-1-yl}-7-fluoro-4-hydroxy-3,4-dihydro-2H-1-benzopyran-2-carboxamide] cannot be ordered by EC50: < 0.01 µM for the first, < 0.01 µM for the second.

First: O=C(COc1ccc(Cl)c(F)c1)NC12CC(NC(=O)C3CC(NC4(C(=O)O)CC4)c4cc(Cl)ccc4O3)(C1)C2 (centres unmarked) [Compound 210, 1-{[6-chloro-2-({3-[2-(4-chloro-3-fluorophenoxy)acetamido]bicyclo[1.1.1]pentan-1-yl}carbamoyl)-3,4-dihydro-2H-1-benzopyran-4-yl]amino}cyclopropane-1-carboxylic acid]
Second: CC(=O)NC1CC(C(=O)NC23CC(NC(=O)COc4ccc(Cl)c(F)c4)(C2)C3)Oc2ccc(Cl)cc21 (centres unmarked) [Compound 220, 4-acetamido-6-chloro-N-{3-[2-(4-chloro-3-fluorophenoxy)acetamido]bicyclo[1.1.1]pentan-1-yl}-3,4-dihydro-2H-1-benzopyran-2-carboxamide]
The EC50 of the first is higher: 0.25 to 0.5 µM for the first, 0.01 to 0.05 µM for the second.

Compared with `COC(=O)CN1C[C@@H](C(=O)NC23CC(NC(=O)COc4ccc(Cl)c(F)c4)(C2)C3)Oc2ccc(Cl)cc21` [Compound 211, methyl [(2S)-6-chloro-2-({3-[2-(4-chloro-3-fluorophenoxy)acetamido]bicyclo[1.1.1]pentan-1-yl}carbamoyl)-2,3-dihydro-4H-1,4-benzoxazin-4-yl]acetate], `O=C(COc1ccc(Cl)c(F)c1)NC12CC(NC(=O)[C@H]3CC(=O)c4cc(Cl)ccc4O3)(C1)C2` [Compound 223, (2R)-6-chloro-N-{3-[2-(4-chloro-3-fluorophenoxy)acetamido]bicyclo[1.1.1]pentan-1-yl}-4-oxo-3,4-dihydro-2H-1-benzopyran-2-carboxamide] is lower in EC50: 0.01 to 0.05 µM for the first, < 0.01 µM for the second.

First: O=C(NC12CC(NC(=O)C3CC(O)c4cc(Cl)ccc4O3)(C1)C2)c1cnc(C(F)F)cn1 (centres unmarked) [Compound 213, N-{3-[(6-chloro-4-hydroxy-3,4-dihydro-2H-1-benzopyran-2-carbonyl)amino]bicyclo[1.1.1]pentan-1-yl}-5-(difluoromethyl)pyrazine-2-carboxamide]
Second: O=C(NC12CC(NC(=O)C3CC(=O)c4cc(Cl)ccc4O3)(C1)C2)c1cnc(C(F)F)cn1 (centres unmarked) [Compound 217, N-{3-[(6-chloro-4-oxo-3,4-dihydro-2H-1-benzopyran-2-carbonyl)amino]bicyclo[1.1.1]pentan-1-yl}-5-(difluoromethyl)pyrazine-2-carboxamide]
The EC50 of the first is lower: 0.01 to 0.05 µM for the first, 0.05 to 0.25 µM for the second.

First: O=C(NC12CCC(NC(=O)C3CC(=O)c4cc(Cl)ccc4O3)(CC1)[C@@H](O)C2)c1cc(C(F)F)no1 (stereo partly drawn) [Compound 214, N-{(3S)-4-[(6-chloro-4-oxo-3,4-dihydro-2H-1-benzopyran-2-carbonyl)amino]-3-hydroxybicyclo[2.2.2]octan-1-yl}-3-(difluoromethyl)-1,2-oxazole-5-carboxamide]
Second: O=C(COc1ccc(Cl)c(F)c1)NC12CC(NC(=O)[C@@H]3CC(=O)c4cc(Cl)ccc4O3)(C1)C2 [Compound 224, (2S)-6-chloro-N-{3-[2-(4-chloro-3-fluorophenoxy)acetamido]bicyclo[1.1.1]pentan-1-yl}-4-oxo-3,4-dihydro-2H-1-benzopyran-2-carboxamide]
The EC50 of the first is higher: 0.25 to 0.5 µM for the first, < 0.01 µM for the second. The second is the more potent here.

`CS(=O)(=O)NC1CC(C(=O)NC23CC(NC(=O)COc4ccc(Cl)c(F)c4)(C2)C3)Oc2ccc(Cl)cc21` (centres unmarked) [Compound 219, 6-chloro-N-{3-[2-(4-chloro-3-fluorophenoxy)acetamido]bicyclo[1.1.1]pentan-1-yl}-4-[(methanesulfonyl)amino]-3,4-dihydro-2H-1-benzopyran-2-carboxamide] and `O=C(COc1ccc(Cl)c(F)c1)NC12CCC(NC(=O)[C@H]3C[C@@H](O)c4cc(Cl)ccc4O3)(CC1)CC2` [Compound 229, (2R,4R)-6-chloro-N-{4-[2-(4-chloro-3-fluorophenoxy)acetamido]bicyclo[2.2.2]octan-1-yl}-4-hydroxy-3,4-dihydro-2H-1-benzopyran-2-carboxamide] cannot be ordered by EC50: < 0.01 µM for the first, < 0.01 µM for the second.

Compared with `COc1cc2oc(C(=O)NC34CC(NC(=O)COc5ccc(Cl)c(F)c5)(C3)C4)cc(=O)c2cc1OC` [Compound 221, N-{3-[2-(4-chloro-3-fluorophenoxy)acetamido]bicyclo[1.1.1]pentan-1-yl}-6,7-dimethoxy-4-oxo-4H-1-benzopyran-2-carboxamide], `O=C(COc1ccc(Cl)c(F)c1)NC12CC(NC(=O)c3cc(=O)c4cc(Cl)c(F)cc4o3)(C1)C2` [Compound 231, 6-chloro-N-{3-[2-(4-chloro-3-fluorophenoxy)acetamido]bicyclo[1.1.1]pentan-1-yl}-7-fluoro-4-oxo-4H-1-benzopyran-2-carboxamide] is lower in EC50: > 2 µM for the first, < 0.01 µM for the second. The second is the more potent here.

First: O=C(COc1ccc(C(F)(F)F)nc1)NC12CC(NC(=O)[C@H]3CC(=O)c4cc(Cl)ccc4O3)(C1)C2 [Compound 225, (2R)-6-chloro-4-oxo-N-[3-(2-{[6-(trifluoromethyl)pyridin-3-yl]oxy}acetamido)bicyclo[1.1.1]pentan-1-yl]-3,4-dihydro-2H-1-benzopyran-2-carboxamide]
Second: O=C(COc1ccc(C(F)(F)F)nc1)NC12CC(NC(=O)[C@H]3C[C@@H](O)c4cc(Cl)ccc4O3)(C1)C2 [Compound 226, (2R,4R)-6-chloro-4-hydroxy-N-[3-(2-{[6-(trifluoromethyl)pyridin-3-yl]oxy}acetamido)bicyclo[1.1.1]pentan-1-yl]-3,4-dihydro-2H-1-benzopyran-2-carboxamide]
The EC50 of the first is higher: 0.01 to 0.05 µM for the first, < 0.01 µM for the second.

First: COc1ncc(OCC(=O)NC23CC(NC(=O)[C@H]4C[C@@H](O)c5cc(Cl)ccc5O4)(C2)C3)cn1 [Compound 227, (2R,4R)-6-chloro-4-hydroxy-N-(3-{2-[(2-methoxypyrimidin-5-yl)oxy]acetamido}bicyclo[1.1.1]pentan-1-yl)-3,4-dihydro-2H-1-benzopyran-2-carboxamide]
Second: O=C(COc1cnc(C(F)(F)F)nc1)NC12CC(NC(=O)[C@H]3C[C@@H](O)c4cc(Cl)ccc4O3)(C1)C2 [Compound 228, (2R,4R)-6-chloro-4-hydroxy-N-[3-(2-{[2-(trifluoromethyl)pyrimidin-5-yl]oxy}acetamido)bicyclo[1.1.1]pentan-1-yl]-3,4-dihydro-2H-1-benzopyran-2-carboxamide]
The EC50 of the first is higher: 0.05 to 0.25 µM for the first, 0.01 to 0.05 µM for the second.

`O=C(COc1ccc(Cl)c(F)c1)NC12CC(NC(=O)c3cc(=O)c4ccc(C(F)(F)F)cc4o3)(C1)C2` [Compound 230, N-{3-[2-(4-chloro-3-fluorophenoxy)acetamido]bicyclo[1.1.1]pentan-1-yl}-4-oxo-7-(trifluoromethyl)-4H-1-benzopyran-2-carboxamide] and `O=C(COc1ccc(Cl)c(F)c1)NC12CC(NC(=O)c3cc(=O)c4cc(F)c(Cl)cc4o3)(C1)C2` [Compound 232, 7-chloro-N-{3-[2-(4-chloro-3-fluorophenoxy)acetamido]bicyclo[1.1.1]pentan-1-yl}-6-fluoro-4-oxo-4H-1-benzopyran-2-carboxamide] cannot be ordered by EC50: < 0.01 µM for the first, < 0.01 µM for the second.
